Laboratory results: patent US8669274B2, “Metalloenzyme inhibitor compounds” (Viamet Pharmaceuticals, Inc., priority 2010, dated 2014)
Blank lines part the entries; values can stand above or below the compound they belong to.

Columns and labels:
CYP17 = biological target: T1, CYP17 (Rattus norvegicus, UniProt P11715); test: Inhibition of CYP17 (pooled rat testicular microsomes); type: biochemical
T1 construct: from tissue; host or cells: pooled rat testicular microsomes
T1 sequence (P11715 1-507): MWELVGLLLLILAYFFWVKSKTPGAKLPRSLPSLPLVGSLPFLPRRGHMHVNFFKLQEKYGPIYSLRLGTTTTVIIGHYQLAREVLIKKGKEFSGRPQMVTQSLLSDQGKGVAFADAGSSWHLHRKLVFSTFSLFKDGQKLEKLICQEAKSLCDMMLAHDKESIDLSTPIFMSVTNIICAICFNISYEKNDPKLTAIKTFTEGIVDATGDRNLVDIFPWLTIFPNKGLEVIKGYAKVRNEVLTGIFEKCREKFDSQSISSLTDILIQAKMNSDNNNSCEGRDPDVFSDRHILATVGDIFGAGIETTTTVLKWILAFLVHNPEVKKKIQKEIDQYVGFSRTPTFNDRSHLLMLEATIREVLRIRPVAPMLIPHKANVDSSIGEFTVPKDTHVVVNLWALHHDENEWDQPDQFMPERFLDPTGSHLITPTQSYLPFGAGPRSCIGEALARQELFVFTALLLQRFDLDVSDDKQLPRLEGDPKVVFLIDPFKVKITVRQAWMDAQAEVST
Experimental: CYP17 activity was assayed according to the following procedure. […] The individual test compound and isozyme inhibitor solutions were then diluted 20-fold with deionized water (50:950 v/v) to concentrations of 135, 27, 4.5, 0.9, 0.15, 0.03 and 0.005 μM. The percent of organic solvent attributable to the test compound or inhibitor mixture in the final reaction mixture is 1%. Pooled rat testicular microsome suspension (20 mg/mL) was diluted with phosphate buffer to obtain a 1.25 mg/mL suspension. A solution of NADPH was prepared in phosphate buffer at a concentration of 2.5×. A stock solution of the substrate was prepared in DMSO:MeCN (50:50 v/v), mixed, and diluted in phosphate buffer to obtain a single solution containing the substrate at 5 μM. The percent of organic solvent attributable to substrate mixture in the final reaction mixture is 1%. Substrate solution and microsome suspension were combined in a 1:1 volume ratio, mixed, and distributed to reaction wells of a PCR plate. Individual test compound or the inhibitor solution at each concentration was added to the wells and mixed by repetitive aspirate/dispense cycles. For active controls, blank test compound diluent was added in place of test compound solution. Reaction mixtures were allowed to equilibrate at 37° C. for approximately two minutes before adding NADPH solution to initiate reaction, followed by pipette mixing of reaction mixture.

CYP2C9 = CYP2C9 (Homo sapiens, UniProt P11712); test: Inhibition of liver cytochrome P450 enzymes (pooled human liver microsomes), CYP2C9
CYP2C9, sequence (P11712 whole entry): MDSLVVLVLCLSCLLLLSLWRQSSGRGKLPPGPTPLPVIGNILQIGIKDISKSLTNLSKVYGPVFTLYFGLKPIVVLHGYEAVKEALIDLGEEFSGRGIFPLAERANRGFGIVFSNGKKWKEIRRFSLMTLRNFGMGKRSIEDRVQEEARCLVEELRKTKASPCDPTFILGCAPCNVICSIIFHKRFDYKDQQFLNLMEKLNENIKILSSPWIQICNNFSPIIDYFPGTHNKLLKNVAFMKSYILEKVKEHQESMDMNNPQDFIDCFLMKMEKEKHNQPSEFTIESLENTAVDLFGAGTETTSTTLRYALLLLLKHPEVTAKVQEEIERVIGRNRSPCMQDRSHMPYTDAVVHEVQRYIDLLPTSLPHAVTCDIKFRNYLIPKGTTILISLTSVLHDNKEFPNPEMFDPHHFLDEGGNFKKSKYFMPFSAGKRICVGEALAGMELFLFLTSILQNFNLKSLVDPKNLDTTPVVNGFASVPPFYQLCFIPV

CYP3A4 = CYP3A4 (Homo sapiens, UniProt P08684); test: Inhibition of liver cytochrome P450 enzymes (pooled human liver microsomes), CYP3A4
CYP3A4, sequence (P08684 whole entry): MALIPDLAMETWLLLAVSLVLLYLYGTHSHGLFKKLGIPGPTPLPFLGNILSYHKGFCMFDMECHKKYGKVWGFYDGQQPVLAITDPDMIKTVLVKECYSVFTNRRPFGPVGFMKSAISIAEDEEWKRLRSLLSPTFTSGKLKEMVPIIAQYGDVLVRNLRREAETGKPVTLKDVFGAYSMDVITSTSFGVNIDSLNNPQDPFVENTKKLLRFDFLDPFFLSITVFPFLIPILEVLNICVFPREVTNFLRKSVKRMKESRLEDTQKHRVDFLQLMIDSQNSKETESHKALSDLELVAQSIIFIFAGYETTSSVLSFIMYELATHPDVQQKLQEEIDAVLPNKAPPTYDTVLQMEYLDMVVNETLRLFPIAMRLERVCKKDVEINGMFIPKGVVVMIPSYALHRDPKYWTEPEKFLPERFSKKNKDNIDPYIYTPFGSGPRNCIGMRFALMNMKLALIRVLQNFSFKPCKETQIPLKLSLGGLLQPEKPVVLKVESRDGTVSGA

CYP2C19 = CYP2C19 (Homo sapiens, UniProt P33261); test: Inhibition of liver cytochrome P450 enzymes (pooled human liver microsomes), CYP2C19
CYP2C19, sequence (P33261 whole entry): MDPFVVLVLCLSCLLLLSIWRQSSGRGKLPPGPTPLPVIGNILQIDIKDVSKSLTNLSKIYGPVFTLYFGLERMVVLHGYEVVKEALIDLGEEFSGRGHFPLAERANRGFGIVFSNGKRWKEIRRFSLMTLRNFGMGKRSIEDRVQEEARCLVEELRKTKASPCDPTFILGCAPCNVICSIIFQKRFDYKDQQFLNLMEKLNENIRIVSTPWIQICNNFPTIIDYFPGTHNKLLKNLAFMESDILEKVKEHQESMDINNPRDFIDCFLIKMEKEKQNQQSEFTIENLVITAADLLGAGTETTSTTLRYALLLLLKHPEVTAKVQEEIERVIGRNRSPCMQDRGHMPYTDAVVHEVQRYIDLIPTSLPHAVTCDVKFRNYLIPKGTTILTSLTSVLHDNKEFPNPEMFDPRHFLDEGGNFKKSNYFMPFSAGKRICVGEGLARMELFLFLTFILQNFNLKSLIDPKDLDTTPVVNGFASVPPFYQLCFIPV

SMILES: CC(=O)N1CCN(c2ccc(OCC3COC(Cn4ccnc4)(c4ccc(Cl)cc4Cl)O3)cc2)CC1 (centres unmarked) [Ketoconazole, ketoconazole, reference compound]
IC50 (CYP17): 0.4 µM

SMILES: CC(C)C(c1ccc2cc(OCC(F)(F)F)c(OCC(F)(F)F)cc2c1)n1ccnn1 (centres unmarked) [Example 2, 1-(1-(6,7-bis(2,2,2-trifluoroethoxy)naphthalen-2-yl)-2-methylpropyl)-1H-1,2,3-triazole]
IC50 (CYP17): 0.48 µM | IC50 (CYP2C9): 2.9 µM | IC50 (CYP3A4): > 60 µM | IC50 (CYP2C19): 4.4 µM

SMILES: COc1cc2ccc(C(C(C)C)n3ccnn3)cc2cc1OC (centres unmarked) [Example 1, 1-(1-(6,7-dimethoxynaphthalen-2-yl)-2-methylpropyl)-1H-1,2,3-triazole]
IC50 (CYP17): 0.05 µM | IC50 (CYP2C9): 6.5 µM | IC50 (CYP3A4): 11 µM | IC50 (CYP2C19): 8.4 µM

Now those with a lower IC50 (CYP17), led by results:

IC50 (CYP17): 0.042 µM | IC50 (CYP2C9): 24 µM | IC50 (CYP3A4): 84 µM | IC50 (CYP2C19): 31 µM
SMILES: CC(C)C(c1ccc2cc(-c3ccc(F)cc3)ccc2n1)n1ccnn1 (centres unmarked) [Example 4, 6-(4-Fluorophenyl)-2-(2-methyl-1-(1H-1,2,3-triazol-1-yl)propyl)quinoline]

IC50 (CYP17): 0.03 µM | IC50 (CYP2C9): 3.2 µM | IC50 (CYP3A4): 19 µM | IC50 (CYP2C19): 5 µM
SMILES: CC(C)C(c1ccc2cc(OCC(F)(F)F)ccc2n1)n1ccnn1 (centres unmarked) [Example 3, 2-(2-Methyl-1-(1H-1,2,3-triazol-1-yl)propyl)-6-(2,2,2-trifluoroethoxy)quinoline]
